Publication PMC9108871 (Frontiers in Plant Science, 2022)

Columns and labels:
[1] = test system: ALDH (aldehyde dehydrogenase; ALDH2); assay: ALDH activity kit (Abcam), absorbance […] nm (NADH standard), Lineweaver-Burk; type: biochemical, Citrus sinensis; settings: no Effector 3; incubation 1 h; varied substrate acetaldehyde (Methods)
[2] = test system: GH17 (Glycosyl Hydrolase family 17); assay: beta-glucosidase kit (MAK129), absorbance […] nm, Lineweaver-Burk; type: biochemical, Citrus sinensis; settings: K-phosphate 100 mM, pH 6.5, 37°C, 20 min; no LasP235; substrate taken from Methods

Row | Structure (SMILES) | Km [1] [µM] | Km [2] [µM]
1 | CC=O [acetaldehyde] | 2130 | –
2 | O=[N+]([O-])c1ccc(O[C@@H]2O[C@H](CO)[C@@H](O)[C@H](O)[C@H]2O)cc1 [p-nitrophenyl-β-D-glucopyranoside] | – | 42
